Test results as given in patent publication US20120052126A1, “Nanoemulsions Containing Antioxidants And Other Health-Promoting Compounds” (priority 2010, published 2012).

Test system: MDA production (lipid peroxidation) in brain tissue
Assay: Malonaldehyde (MDA) production in mouse brain after oral administration and sleep fragmentation
Type: in vivo, mice
Conditions: gavage once a day for 120 days, then 15 days sleep fragmentation, brain cortex, MDA expressed as fold increase
Excerpt: Male adult mice were obtained having either the human APOE ε4 allele (targeted replacement, n=42) or wild type allele (n=42). […] Administration was by gavage once a day for 120 days. After this period, the subject mice underwent sleep fragmentation (SF) for 15 days. The SF device exposes freely behaving mice in a standard laboratory cage to intermittent tactile stimulation utilizing a motorized mechanical device. Tactile stimulation is produced by a horizontal bar powered by an electrical motor system, which sweeps just above the cage floor from side to side at intermittent functioning mode (2 min). During the […] motion, mice may need to step over the […] passes. Chronic SF may induce inflammatory responses and oxidative stress. After 15 days of SF, the mice were sacrificed and the brain dissected out for MDA and 8-OHdG assays, which are produced by the brain in response to oxidative stress and inflammatory events. MDA production is an indicator of lipid peroxidation. After the mice were sacrificed, an LPO-586 kit (OxisResearch, Portland Oreg.) was used according to the manufacturer's instructions to measure MDA levels in the brain tissue. The animals were anesthetized with CO2 inhalation then decapitated, and the cortex were dissected, snap frozen in liquid nitrogen, and stored at -80° C. until assay the following day. Neuronal tissues were homogenized in 20 mM phosphate buffer (pH 7.4) containing 0.5 mM butylated hydroxytoluene to prevent sample oxidation. […] The samples were then centrifuged and clear supernatants measured at 586 nm. MDA production was then calculated per the standard curve according to the manufacturer's instructions. The relative levels of lipid peroxidation were expressed in fold increase in MDA production.

Compound	MDA production, Diff of Means (MDA-APOE ε4 allele mice (human APOE ε4 targeted replacement))	MDA production, Diff of Means (MDA-Wild Type mice)
O=C(O)CCCCC1CCSS1 (stereo not drawn) [lipoic acid (SW), lipoic acid]	0.663	0.46
Cc1c(C)c2c(c(C)c1O)CC[C@@](C)(CCC[C@H](C)CCC[C@H](C)CCCC(C)C)O2 [vitamin E (SW), vitamin E]		0.489
